{"source": "patent US20230127703A1", "about": "“THERAPEUTIC AGENT FOR CORONAVIRUS INFECTION” (FUJIFILM Toyama Chemical Co., Ltd., priority 2020, published 2023)", "system": "SARS-CoV-2", "key": {"[1]": {"details": "improvement of body temperature, SpO2, chest imaging followed by negative conversion of SARS-CoV-2, N = 107"}}}
{"smiles": "NC(=O)c1nc(F)cnc1O", "note": "[Compound A, 6-fluoro-3-hydroxy-2-pyrazinecarboxamide]", "values": [{"measurement": "median time to improvement compared with control group", "setting": "Compound A group (107 patients) vs control group (49 patients)", "result": "shorter by approximately three days"}, {"measurement": "treatment effect compared with control group", "setting": "Compound A group vs control group", "result": "statistically significantly higher treatment effect"}, {"measurement": "clinical safety", "setting": "Compound A group, 107 patients, up to 14 days of treatment", "result": "no clinical safety concerns were identified"}, {"measurement": "Time to improvement in 25% of patients (days) (median)", "setting": "[1]", "result": 7.7, "unit": "days"}, {"measurement": "Time to improvement in 50% of patients (days) (median)", "setting": "[1]", "result": 11.8, "unit": "days"}, {"measurement": "Time to improvement in 75% of patients (days) (median)", "setting": "[1]", "result": 15.6, "unit": "days"}, {"measurement": "Patients with improvement", "setting": "number of patients of N = 107, standard of care + 1,800 mg BID Day 1, 800 mg BID up to 13 days, oral, mITT", "result": 82}]}
